# Experimental data: patent US6576622B1, “Drug combination for the treatment of viral diseases” (University of Medicine & Dentistry of New Jersey, priority 1995, dated 2003)
# What was measured:
# [1] = tested on: HIV-gpt; test: HIV-gpt colony formation after infection of HeLa-T4 cells in the presence of antiretroviral agents; format: cell-based; conditions: HeLa-T4; plasmid derived HIV-gpt (COS cells); AZT 10 μM, DDI 50 μM, D4T 50 μM; no drug control 8800
# [2] = tested on: HIV-LacZ; format: cell-based
# [3] = tested on: HIV-gpt; conditions: in the presence of TIBO R82150; earlier study (26); cited from earlier work
# [4] = tested on: HIV-gpt; test: HIV-gpt colony formation in the presence of D4T; format: cell-based; conditions: for Frequency: with D4T
# Procedure: (§1) Production of recombinant HIV-gpt has been described elsewhere (26). The amphotropic cell line PA317 was transfected with the recombinant murine retrovirus pLXSN (36) and was used as the source of the recombinant MLV-neo virus. Stock preparations of HIV-1IIIB were harvested from H9 cells by the “shake off method” (13). Stock virus infectivity was determined by end-point dilution in MT-2 cells (32). Virus induced cytopathic effect was scored 7 days post-infection and the TCID50 was calculated with the Reed and Muench equation (33).
# (§2) To confirm this high rate of infection in the absence of genetic drug resistance, we used several other recombinant viruses and host cells. […] A high rate of infection of Jurkat cells in the presence of d4T has also been seen.
# (§3) Table 5. HIV-gpt produced in COS cells by transfection with plasmids (plasmid derived) is compared with HIV-gpt produced by, rescue from H9/HIV-gpt cell line after infection with HIV-IIIB and cells infected with MLV-neo.
# [5] = tested on: MLV-neo; test: MLV-neo colony formation in the presence of antiviral agents; format: cell-based, Moloney Leukemia virus
# Procedure: as §1, §2, §3
# (§4) Table 6. Colony formation and persistent resistance after Hela-T4 cell infection with MLV-neo virus in the presence and absence of various antiviral agents.
# [6] = tested on: recombinant HIV, recombinant MLV, or replication-competent HIV; format: cell-based
# From the text: The presence of a selectable marker gene in the recombinant HIV allowed the isolation of cells infected by the recombinant viruses in the presence of d4T. These cells were characterized by infection with both additional recombinant viruses and by replication-competent viruses.
# as §4
# [7] = tested on: MLV-LacZ; test: Infection of Jurkat JE6.1 cell clones with MLV-LacZ in the presence of D4T; format: cell-based
# From the text: Table 7. Infection of Jurkat JE6.1 cell clones sensitive and resistant to D4T.
# ** Bulk=bulk culture; R=resistant clone; C=control clone; JE6.1=parental cell line.
# [8] = tested on: HIV-IIIB; test: HIV-IIIB infection of JE6.1 cells refractory to d4T, D4T IC50 with FUdr (RT activity); format: cell-based, HIV-1; conditions: Human immunodeficiency virus 1, IIIB, 144 h, concentration of D4T for 50% inhibition of RT activity on day 6, F = uM FUdr
# Procedure: Table 8. Jurkat JE6.1 cells refractory to the antiviral activity of d4T (D4T bulk, D4TR1, D4TR3) and control JE6.1 cells were infected with HIV-IIIB in the presence of 0.001 uM d4T, 0.01 uM d4T 0.1 uM d4T, 1 uM d4T, 10 uM d4T, 100 uM d4T and 1000 uM d4T in the presence of 0.005 uM FUdr, 0.01 uM FUdr or 0.25 uM FUdr.
compound,measurement,setting,value
CC(C)=CCN1Cc2cccc3[nH]c(=S)n(c23)C[C@@H]1C [TIBO],Number of colonies,[1],3
same,selection of cells “persistently resistant” to the antiretroviral effects of the drug,"[2]; HeLa-T4, identical techniques as for nucleoside analogs",no cells “persistently resistant”
same,Number of “persistently resistance” colonies,"[2]; colonies from HIV-gpt infection of HeLa-T4 in presence of drug, resistant/tested",0/3
same,Frequency,"[2]; frequency of persistently resistant colonies, HeLa-T4, plasmid derived HIV-gpt",0
same,prevalence of infection with COS-cell derived virus versus HIV-gpt rescued by replication-competent virus,[3],twenty fold lower
"Cc1cn([C@H]2C=C[C@@H](CO)O2)c(=O)[nH]c1=O [D4T, Stavudine]",Number of colonies,[1],50
same,cross resistance of cell lines “persistently resistant” to AZT to other nucleoside analogs,[2]; d4T at 50 μM,partial cross resistance
same,Frequency,[4]; HIV-gpt by rescue with HIV,1.6 × 10^3
same,No. of colonies with D4T,"[4]; HIV-gpt by rescue with HIV, without D4T 3.4 × 10^4",53
same,Frequency,[4]; plasmid derived HIV-gpt,1.7 × 10^3
same,No. of colonies with D4T,"[4]; plasmid derived HIV-gpt, without D4T 4.7 × 10^4",80
same,No. of colonies,"[5]; Hela-T4, AZT 10 uM, DDI 50 uM, DDC 10 uM, D4T 50 uM, control 9050",63
same,No. of colonies with D4T,[5]; without D4T 9.2 × 10^4,101
same,cells infected with HIV in the presence of d4T that are readily re-infected in the presence of high concentrations of d4T,[6],~50%
same,No. of persistently resistant colonies,"[6]; Hela-T4, MLV-neo, AZT 10 uM, DDI 50 uM, DDC 10 uM, D4T 50 uM, resistant/tested",23/63
same,isolated cells repeatedly refractory to the antiviral effects of d4T,"[6]; cells infected in the presence of d4T, re-infection at high concentrations of d4T",approximately 37%
same,Frequency,"[6]; frequency of persistently resistant colonies, Hela-T4, MLV-neo",2.5 × 10^−3
same,% cells infected with MLV-LacZ in the presence of D4T relative to absence of D4T,"[7]; JE6.1 parental cell line, 50 uM D4T","− ((−), 20%)"
same,% cells infected with MLV-LacZ in the presence of D4T relative to absence of D4T,"[7]; JE6.1 parental cell line, 100 uM D4T","− ((−), 20%)"
same,% cells infected with MLV-LacZ in the presence of D4T relative to absence of D4T,"[7]; Jurkat Bulk (bulk culture), 50 uM D4T",++ ((++) 41-60%)
same,% cells infected with MLV-LacZ in the presence of D4T relative to absence of D4T,"[7]; Jurkat Bulk (bulk culture), 100 uM D4T",+ ((+) 21-40%)
same,% cells infected with MLV-LacZ in the presence of D4T relative to absence of D4T,"[7]; Jurkat control clone C2, 50 uM D4T","− ((−), 20%)"
same,% cells infected with MLV-LacZ in the presence of D4T relative to absence of D4T,"[7]; Jurkat control clone C2, 100 uM D4T","− ((−), 20%)"
same,% cells infected with MLV-LacZ in the presence of D4T relative to absence of D4T,"[7]; Jurkat control clone C23, 50 uM D4T","− ((−), 20%)"
same,% cells infected with MLV-LacZ in the presence of D4T relative to absence of D4T,"[7]; Jurkat control clone C23, 100 uM D4T","− ((−), 20%)"
same,% cells infected with MLV-LacZ in the presence of D4T relative to absence of D4T,"[7]; Jurkat control clone C26, 50 uM D4T","− ((−), 20%)"
same,% cells infected with MLV-LacZ in the presence of D4T relative to absence of D4T,"[7]; Jurkat control clone C26, 100 uM D4T","− ((−), 20%)"
same,% cells infected with MLV-LacZ in the presence of D4T relative to absence of D4T,"[7]; Jurkat control clone C27, 50 uM D4T","− ((−), 20%)"
same,% cells infected with MLV-LacZ in the presence of D4T relative to absence of D4T,"[7]; Jurkat control clone C27, 100 uM D4T","− ((−), 20%)"
same,% cells infected with MLV-LacZ in the presence of D4T relative to absence of D4T,"[7]; Jurkat resistant clone R1, 50 uM D4T","++++ ((++++), 81-100%)"
same,% cells infected with MLV-LacZ in the presence of D4T relative to absence of D4T,"[7]; Jurkat resistant clone R1, 100 uM D4T","++++ ((++++), 81-100%)"
same,% cells infected with MLV-LacZ in the presence of D4T relative to absence of D4T,"[7]; Jurkat resistant clone R3, 50 uM D4T","+++ ((+++), 61-80%)"
same,% cells infected with MLV-LacZ in the presence of D4T relative to absence of D4T,"[7]; Jurkat resistant clone R3, 100 uM D4T",++ ((++) 41-60%)
same,% cells infected with MLV-LacZ in the presence of D4T relative to absence of D4T,"[7]; Jurkat resistant clone R4, 50 uM D4T","− ((−), 20%)"
same,% cells infected with MLV-LacZ in the presence of D4T relative to absence of D4T,"[7]; Jurkat resistant clone R4, 100 uM D4T","− ((−), 20%)"
same,% cells infected with MLV-LacZ in the presence of D4T relative to absence of D4T,"[7]; Jurkat resistant clone R7, 50 uM D4T","− ((−), 20%)"
same,% cells infected with MLV-LacZ in the presence of D4T relative to absence of D4T,"[7]; Jurkat resistant clone R7, 100 uM D4T","− ((−), 20%)"
same,% cells infected with MLV-LacZ in the presence of D4T relative to absence of D4T,"[7]; Jurkat resistant clone R12, 50 uM D4T","++++ ((++++), 81-100%)"
same,% cells infected with MLV-LacZ in the presence of D4T relative to absence of D4T,"[7]; Jurkat resistant clone R12, 100 uM D4T","++++ ((++++), 81-100%)"
same,% cells infected with MLV-LacZ in the presence of D4T relative to absence of D4T,"[7]; Jurkat resistant clone R14, 50 uM D4T",+ ((+) 21-40%)
same,% cells infected with MLV-LacZ in the presence of D4T relative to absence of D4T,"[7]; Jurkat resistant clone R14, 100 uM D4T","− ((−), 20%)"
same,% cells infected with MLV-LacZ in the presence of D4T relative to absence of D4T,"[7]; Jurkat resistant clone R15, 50 uM D4T","++++ ((++++), 81-100%)"
same,% cells infected with MLV-LacZ in the presence of D4T relative to absence of D4T,"[7]; Jurkat resistant clone R15, 100 uM D4T","++++ ((++++), 81-100%)"
same,% cells infected with MLV-LacZ in the presence of D4T relative to absence of D4T,"[7]; Jurkat resistant clone R16, 50 uM D4T",+ ((+) 21-40%)
same,% cells infected with MLV-LacZ in the presence of D4T relative to absence of D4T,"[7]; Jurkat resistant clone R16, 100 uM D4T","− ((−), 20%)"
same,% cells infected with MLV-LacZ in the presence of D4T relative to absence of D4T,"[7]; Jurkat resistant clone R19, 50 uM D4T","− ((−), 20%)"
same,% cells infected with MLV-LacZ in the presence of D4T relative to absence of D4T,"[7]; Jurkat resistant clone R19, 100 uM D4T","− ((−), 20%)"
same,% cells infected with MLV-LacZ in the presence of D4T relative to absence of D4T,"[7]; Jurkat resistant clone R20, 50 uM D4T","++++ ((++++), 81-100%)"
same,% cells infected with MLV-LacZ in the presence of D4T relative to absence of D4T,"[7]; Jurkat resistant clone R20, 100 uM D4T","+++ ((+++), 61-80%)"
same,% cells infected with MLV-LacZ in the presence of D4T relative to absence of D4T,"[7]; Jurkat resistant clone R21, 50 uM D4T","++++ ((++++), 81-100%)"
same,% cells infected with MLV-LacZ in the presence of D4T relative to absence of D4T,"[7]; Jurkat resistant clone R21, 100 uM D4T","++++ ((++++), 81-100%)"
same,% cells infected with MLV-LacZ in the presence of D4T relative to absence of D4T,"[7]; Jurkat resistant clone R22, 50 uM D4T",++ ((++) 41-60%)
same,% cells infected with MLV-LacZ in the presence of D4T relative to absence of D4T,"[7]; Jurkat resistant clone R22, 100 uM D4T",+ ((+) 21-40%)
same,% cells infected with MLV-LacZ in the presence of D4T relative to absence of D4T,"[7]; Jurkat resistant clone R26, 50 uM D4T",+ ((+) 21-40%)
same,% cells infected with MLV-LacZ in the presence of D4T relative to absence of D4T,"[7]; Jurkat resistant clone R26, 100 uM D4T","− ((−), 20%)"
same,% cells infected with MLV-LacZ in the presence of D4T relative to absence of D4T,"[7]; Jurkat resistant clone R29, 50 uM D4T","− ((−), 20%)"
same,% cells infected with MLV-LacZ in the presence of D4T relative to absence of D4T,"[7]; Jurkat resistant clone R29, 100 uM D4T","− ((−), 20%)"
same,% cells infected with MLV-LacZ in the presence of D4T relative to absence of D4T,"[7]; Jurkat resistant clone R33, 50 uM D4T","+++ ((+++), 61-80%)"
same,% cells infected with MLV-LacZ in the presence of D4T relative to absence of D4T,"[7]; Jurkat resistant clone R33, 100 uM D4T",+ ((+) 21-40%)
same,% cells infected with MLV-LacZ in the presence of D4T relative to absence of D4T,"[7]; Jurkat resistant clone R36, 50 uM D4T","++++ ((++++), 81-100%)"
same,% cells infected with MLV-LacZ in the presence of D4T relative to absence of D4T,"[7]; Jurkat resistant clone R36, 100 uM D4T",++ ((++) 41-60%)
same,IC50,[8]; D4TBulk cells (refractory to d4T),3 µM
same,IC50,[8]; D4TR1 cells (refractory to d4T),74 µM
same,IC50,[8]; D4TR3 cells (refractory to d4T),2 µM
same,IC50,[8]; JE6.1 control cells,0.02 µM
